The record followed here is US20020156284A1, “Crystalline form of omeprazole” (priority 1998, published 2002).

“Also recorded” adds a separate entry of the source.

What all share (assay type): physicochemical
The nature of series [1]: thermodynamic stability of crystal forms.
A short description of the next series: hygroscopicity.
The nature of series [2]: chemical stability (thermo stability and light stability). As to conditions: compared with omeprazole form B.
The mark [3] stands for this setting: compared with omeprazole form B, especially at room temperature.

Take `COc1ccc2[nH]c([S+]([O-])Cc3ncc(C)c(OC)c3C)nc2c1` (centres unmarked) [Omeprazole form B, 5-methoxy-2-[[(4-methoxy-3,5-dimethyl-2-pyridinyl)methyl]sulfinyl]-1H-benzimidazole, reference compound]: in series [1] (under certain conditions), the “conversion into the other crystal form” value is “completely or partly, be converted into omeprazole form A”.
Turning to `COc1ccc2[nH]c([S+]([O-])Cc3ncc(C)c(OC)c3C)nc2c1` (centres unmarked) [Omeprazole form A, 5-methoxy-2-[[(4-methoxy-3,5-dimethyl-2-pyridinyl)methyl]sulfinyl]-1H-benzimidazole], the thermodynamic stability entry in series [1] (setting [3]) is reported as “thermodynamically more stable; also recorded: thermo-dynamically more stable than omeprazole form B”. In addition, in “hygroscopicity”, the “hygroscopicity (absolute statement)” value is given as “essentially non-hygroscopic”. Besides, the hygroscopicity entry in “hygroscopicity” (setting [3]) is listed as “less hygroscopic than omeprazole form B”. Further, the “chemical stability, such as thermo stability and light stability” value in series [2] is reported as “better chemical stability”.
